In publication PMC11564732, “Synthesis and preliminary cytotoxicity evaluation of water soluble pentacyclic triterpenoid phosphonates” (Scientific Reports, 2024):
Values after ≈ are worked out from the molar mass of the structure shown.

Tests used:
[1] = tested on: mouse-derived preosteoblast cell line MC3T3-E1; assay: Cytotoxicity evaluation, relative cell metabolic activity (CellTiter-Blue), MC3T3-E1; assay type: cell-based; conditions: 24 h, mean ± SD; for viability at 10 µM / viability at 25 µM / viability at 50 µM: Mus musculus, read-out: Relative metabolic activity of MC3T3-E1 cells; for viability at 10 µM: MC3T3-E1, 10 µM; for viability at 25 µM: MC3T3-E1, 25 µM; for viability at 50 µM: MC3T3-E1, 50 µM
Experimental: (§1) All target compounds were studied to determine their cytotoxic activity at various concentrations of each compound (10–50 µM) against human-derived osteosarcoma cell line MG-63 (ATCC, CRL-1427) and mouse-derived preosteoblast cell line MC3T3-E1 (ATCC, CRL-2593) (Table 4 and Figures S1-S4 in the Supporting Information). For the comparison, naturally occurring betulinic, oleanolic (1b) and ursolic (1c) acids as well as their 3-oxo analogs 2a-c and doxorubicin, were also subjected to the cytotoxicity tests.
(§2) Cytotoxicity of betulinic acid, ursolic acid and oleanolic acid derivatives was evaluated using human-derived osteosarcoma cell line MG63 (ATCC, CRL-1427) and mouse-derived preosteoblast cell line MC3T3-E1 (ATCC CRL-2593). Before conducting the experiments, both cell lines were continuously cultured according to the ATCC product sheet instructions. Briefly, both cell lines were expanded in α-MEM medium supplemented with 10% FBS and 1% pen-strep and maintained at 37 °C in a humidified atmosphere with 5% CO2.
(§3) Each cell line was plated at a concentration of 1 × 10^4 cells/well in 96-well plate. The plates were incubated for 24 h to allow cell attachment and growth. Bioactive substances were solubilized in methanol prior further dilution in cell culture media. Following the cell incubation period, the culture media was removed and the dilutions of active substance (10, 25 and 50 µM) in cell culture media were added. The culture medium only and its dilutions with methanol solution respective to the bioactive substance concentrations were used as the controls. […] Cells were treated with bioactive substance solutions for 24 h. After 24 h incubation, relative cell metabolic activity was assessed using CellTiter-Blue® (CTB) analysis (Promega, JAV). […] was measured at 590 nm using microplate reader (Infinite® 200 PRO, Tecan, USA). The relative cell metabolic activity was calculated for each bioactive substance concentration as well as for the controls. […] Statistically significant differences between sample groups are assessed using a one-way ANOVA test and then corrected using the Šídák multiple comparison test. Statistically significant differences were considered to be those with a P-values less than 0.05 (p < 0.05).
as §2, with “10 %” for “10%”, “1 %” for “1%”, “5 %” for “5%”
(§4) […]

[2] = tested on: human-derived osteosarcoma cell line MG-63; assay: Cytotoxicity evaluation, relative cell metabolic activity (CellTiter-Blue), MG-63; assay type: cell-based; conditions: 24 h, mean ± SD; for viability at 10 µM / viability at 25 µM / viability at 50 µM: Homo sapiens, read-out: Relative metabolic activity of MG-63 cells; for viability at 10 µM: MG-63, 10 µM; for viability at 25 µM: MG-63, 25 µM; for viability at 50 µM: MG-63, 50 µM
Experimental: as §1, §2, §3
as §2, with “10 %” for “10%”, “1 %” for “1%”, “5 %” for “5%”
as §4

[3] = Water solubility determination by quantitative 1H-NMR in D2O; assay type: physicochemical; conditions: D2O adjusted with NaOD, aqueous buffer, thermodynamic from solid; qNMR in D2O, pH 8.0-8.5 (NaOD), room temperature, potassium hydrogen phthalate external standard
From the text: The obtained PCT-derived sodium phosphonates were subjected to water solubility tests (Table 3). For this purpose, we used a quantitative ^1H-NMR approach in D2O, using potassium hydrogen phthalate as an external standard (for experimental details see Supporting Information). The presence of the basic forms of phosphonates[80] was ensured by the careful addition of NaOD, maintaining pH 8.0–8.5 during the quantification, which is 2–3 units higher than the pKa of phosphonic acid disalt. […] This is by at least two to three orders of magnitude higher than the reported solubilities of the parent natural triterpenic acids. […] Indeed, phosphonic acids are more acidic and easier ionizable than carboxylic acids. This ionic character helps to increase the aqueous solubility as exemplified by here described compounds.
Water solubility determination
To suspension of PCT phosphonate sample (10 mg) in D2O (500 µL) 0.8% solution of NaOD in D2O was added dropwise until pH = 8-8.5 (<100 µL). Obtained suspension was sonified in ultrasonic bath for 10 min. Undissolved particles were separated by centrifugation. Clear D2O solution was carefully transferred to NMR tube equipped with external standard vial.
Formula (1) was used to determine the solubility of PCT sample in the D2O.
[…]
SolPCT - solubility of PCT sample in D2O at room temperature (mg/mL)
IPCT - integral value of PCT signal of choice
Ist - integral value of external standard signal of choice
NPCT - number of integrated protons of PCT
Nst - number of integrated protons of external standard
V - volume of used D2O (mL) mst - mass of external standard (mg)
Mbet - molecular weight of PCT (g•mol−1)
Mst - molecular weight of external standard - potassium hydrogen phthalate (204.22 […]
Wst - assay of the external standard (99.5 %)

[4] = cited from earlier work

Compound	viability at 10 µM [1] [%]	viability at 25 µM [1] [%]	viability at 50 µM [1] [%]	viability at 10 µM [2] [%]	viability at 25 µM [2] [%]	viability at 50 µM [2] [%]	solubility at 10 min [3] [µg/mL]	Solubility in distilled water ([4]; distilled water) [µg/mL]	Aqueous solubility at neutral pH [4] [µg/mL]	Solubility in sodium phosphate solution ([4]; pH 11.4, sodium phosphate solution) [µg/mL]	Aqueous solubility at pH 11.8 [4] [µg/mL]	Aqueous solubility (in words) ([4]; compared with oleanolic and betulinic acids)	Relative metabolic activity of MC3T3-E1 cells ([1]; 10 µM)	Relative metabolic activity of MC3T3-E1 cells ([1]; 25 µM)	Relative metabolic activity of MC3T3-E1 cells ([1]; 50 µM)	Relative metabolic activity of MG-63 cells ([2]; 10 µM)	Relative metabolic activity of MG-63 cells ([2]; 25 µM)	Relative metabolic activity of MG-63 cells ([2]; 50 µM)
CC1(C)CCC2(C(=O)OCP(=O)([O-])[O-])CCC3(C)C(=CCC4C5(C)CCC(=O)C(C)(C)C5CCC43C)C2C1.[Na+].[Na+] (stereo not drawn) [7b]	131 ± 8	150 ± 4	104 ± 5	113 ± 8	132 ± 5	119 ± 5	8000	–	–	–	–	–	–	–	–	–	–	–
CC1CCC2(C(=O)OCP(=O)([O-])[O-])CCC3(C)C(=CCC4C5(C)CCC(=O)C(C)(C)C5CCC43C)C2C1C.[Na+].[Na+] (stereo not drawn) [7c]	91 ± 6	90 ± 3	94 ± 5	96 ± 4	98 ± 4	112 ± 3	26000	–	–	–	–	–	–	–	–	–	–	–
C=C(C)C1CCC2(C(=O)OCP(=O)([O-])[O-])CCC3(C)C(CCC4C5(C)CCC(O)C(C)(C)C5CCC43C)C12.[Na+].[Na+] (stereo not drawn) [8a]	108 ± 5	119 ± 4	101 ± 5	158 ± 5	124 ± 25	159 ± 17	3000	–	–	–	–	–	–	–	–	–	–	–
CC1(C)CCC2(C(=O)OCP(=O)([O-])[O-])CCC3(C)C(=CCC4C5(C)CCC(O)C(C)(C)C5CCC43C)C2C1.[Na+].[Na+] (stereo not drawn) [8b]	–	–	–	–	–	–	7000	–	–	–	–	–	–	–	–	–	–	–
C=C(C)[C@@H]1CC[C@]2(C(=O)O)CC[C@]3(C)[C@H](CC[C@@H]4[C@@]5(C)CC[C@H](O)C(C)(C)[C@@H]5CC[C@]43C)[C@@H]12 [Betulinic acid]	76 ± 7	56 ± 4	97 ± 7	74 ± 16	91 ± 14	112 ± 8	–	0.021 (≈ 0.046 µM)	< 0.1	40.1 (≈ 87.8 µM)	42.1	–	–	–	–	–	–	–
C=C(C)[C@@H]1CC[C@]2(C(=O)O)CC[C@]3(C)[C@H](CC[C@@H]4[C@@]5(C)CCC(=O)C(C)(C)[C@@H]5CC[C@]43C)[C@@H]12 [Betulonic acid (2a), Betulonic acid]	139 ± 6	170 ± 5	122 ± 1	114 ± 2	96 ± 4	88 ± 8	–	–	–	–	–	–	–	–	–	–	–	–
COc1cccc2c1C(=O)c1c(O)c3c(c(O)c1C2=O)C[C@@](O)(C(=O)CO)C[C@@H]3O[C@H]1C[C@H](N)[C@H](O)[C@H](C)O1 [Doxorubicin]	72 ± 7	60 ± 3	53 ± 3	41 ± 2	19 ± 1	16 ± 2	–	–	–	–	–	–	–	–	–	–	–	–
CC1(C)CC[C@]2(C(=O)O)CC[C@]3(C)C(=CC[C@@H]4[C@@]5(C)CC[C@H](O)C(C)(C)[C@@H]5CC[C@]43C)[C@@H]2C1 [Oleanolic acid (1b), Oleanolic acid]	104 ± 7	97 ± 8	96 ± 5	77 ± 14	158 ± 13	129 ± 11	–	–	< 0.1	–	99.5	–	–	–	–	–	–	–
CC1(C)CC[C@]2(C(=O)O)CC[C@]3(C)C(=CC[C@@H]4[C@@]5(C)CCC(=O)C(C)(C)[C@@H]5CC[C@]43C)[C@@H]2C1 [Oleanonic acid (2b), Oleanonic acid]	110 ± 1	99 ± 5	49 ± 12	151 ± 8	160 ± 3	103 ± 18	–	–	–	–	–	–	–	–	–	–	–	–
C[C@H]1[C@H](C)CC[C@]2(C(=O)O)CC[C@]3(C)C(=CC[C@@H]4[C@@]5(C)CC[C@H](O)C(C)(C)[C@@H]5CC[C@]43C)[C@H]12 [Ursolic acid (1c), Ursolic acid]	106 ± 5	83 ± 5	99 ± 8	66 ± 3	64 ± 3	28 ± 4	–	–	–	–	–	similarly low aqueous solubility	–	–	–	–	–	–
C[C@H]1[C@H](C)CC[C@]2(C(=O)O)CC[C@]3(C)C(=CC[C@@H]4[C@@]5(C)CCC(=O)C(C)(C)[C@@H]5CC[C@]43C)[C@H]12 [Ursonic acid (2c), Ursonic acid]	74 ± 2	107 ± 7	72 ± 9	76 ± 8	67 ± 4	67 ± 4	–	–	–	–	–	–	–	–	–	–	–	–
C=C(C)[C@@H]1CC[C@]2(COCP(=O)([O-])[O-])CC[C@]3(C)[C@H](CC[C@@H]4[C@@]5(C)CC[C@H](OCP(=O)([O-])[O-])C(C)(C)[C@@H]5CC[C@]43C)[C@@H]12.[Na+].[Na+].[Na+].[Na+] [compound 12, Sodium (lup-20(29)-en-(3 S)-3,28-diylbis(oxymethylene))bis(phosphonate)]	90 ± 7	93 ± 6	92 ± 4	97 ± 8	89 ± 5	94 ± 4	3000	–	–	–	–	–	–	–	–	–	–	–
Sodium (3-oxo-(17R)-17-28-norlup-20(29)-en)-2-oxoethyl-phosphonate [7a]	–	–	–	–	–	–	–	–	–	–	–	–	1.41 ± 0.01	1.27 ± 0.05	1.13 ± 0.03	1.10 ± 0.04	1.30 ± 0.06	1.09 ± 0.04
